Target: T1, Fructose-1,6-bisphosphatase 1 (Homo sapiens, UniProt P09467)
T1 sequence (P09467 whole entry): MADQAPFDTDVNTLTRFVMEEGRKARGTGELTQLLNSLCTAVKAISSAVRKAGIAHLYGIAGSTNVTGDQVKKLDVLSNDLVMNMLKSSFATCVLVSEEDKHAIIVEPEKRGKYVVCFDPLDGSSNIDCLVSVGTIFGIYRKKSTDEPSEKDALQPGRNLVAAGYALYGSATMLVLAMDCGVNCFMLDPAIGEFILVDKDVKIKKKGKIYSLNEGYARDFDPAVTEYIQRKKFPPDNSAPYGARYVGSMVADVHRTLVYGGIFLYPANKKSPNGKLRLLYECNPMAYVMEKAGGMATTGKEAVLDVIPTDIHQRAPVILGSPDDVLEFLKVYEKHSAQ
Assay: Inhibition of human liver FBPase expressed in Escherichia coli by spectrophotometry

## Nc1ncnc2c1nc(-c1ccc(P(=O)(O)O)o1)n2CCC1CCCCC1 [5-(6-amino-9-(2-cyclohexylethyl)-9H-purin-8-yl)furan-2-ylphosphonic acid]
  IC50: 1400 nM
